The values that follow come from ChEMBL document CHEMBL6127032, “Progress of ATM inhibitors: Opportunities and challenges” (Eur J Med Chem, 2024).

In brackets after ≈: the same amount, converted by molar mass. Bounds are passed on as bounds.

A short description of series [1]: Oral bioavailability in human. In kind it is ADME, organism-based. To be noted: in vivo.
The nature of series [2]: Inhibition of PI3K (unknown origin). More on the design: species or system Homo sapiens.
The target of series [3] is T1, Serine-protein kinase ATM (Homo sapiens, UniProt Q13315). The experiment in a line: Inhibition of ATM in human HeLa cells. The class given is cell-based.
Series [4] in a line: Inhibition of DNA-PK (unknown origin). On the set-up: species or system Homo sapiens.
The nature of series [5]: Inhibition of PI4K (unknown origin). More on the design: species or system Homo sapiens.
The target of series [6] is Serine/threonine-protein kinase ATR (Homo sapiens, UniProt Q13535). The experiment in a line: Inhibition of ATR (unknown origin).
Series [7] has as its target Serine/threonine-protein kinase mTOR (Homo sapiens, UniProt P42345). Description: Inhibition of mTOR (unknown origin).
Series [8] deals with U2OS. Description: cells. As to conditions: Homo sapiens.
For series [9], the target named is T1, Serine-protein kinase ATM. Description: Inhibition of ATM (unknown origin).
A short description of series [10]: Solubility of compound in PBS buffer. In kind it is physicochemical.

T1 sequence (Q13315 whole entry): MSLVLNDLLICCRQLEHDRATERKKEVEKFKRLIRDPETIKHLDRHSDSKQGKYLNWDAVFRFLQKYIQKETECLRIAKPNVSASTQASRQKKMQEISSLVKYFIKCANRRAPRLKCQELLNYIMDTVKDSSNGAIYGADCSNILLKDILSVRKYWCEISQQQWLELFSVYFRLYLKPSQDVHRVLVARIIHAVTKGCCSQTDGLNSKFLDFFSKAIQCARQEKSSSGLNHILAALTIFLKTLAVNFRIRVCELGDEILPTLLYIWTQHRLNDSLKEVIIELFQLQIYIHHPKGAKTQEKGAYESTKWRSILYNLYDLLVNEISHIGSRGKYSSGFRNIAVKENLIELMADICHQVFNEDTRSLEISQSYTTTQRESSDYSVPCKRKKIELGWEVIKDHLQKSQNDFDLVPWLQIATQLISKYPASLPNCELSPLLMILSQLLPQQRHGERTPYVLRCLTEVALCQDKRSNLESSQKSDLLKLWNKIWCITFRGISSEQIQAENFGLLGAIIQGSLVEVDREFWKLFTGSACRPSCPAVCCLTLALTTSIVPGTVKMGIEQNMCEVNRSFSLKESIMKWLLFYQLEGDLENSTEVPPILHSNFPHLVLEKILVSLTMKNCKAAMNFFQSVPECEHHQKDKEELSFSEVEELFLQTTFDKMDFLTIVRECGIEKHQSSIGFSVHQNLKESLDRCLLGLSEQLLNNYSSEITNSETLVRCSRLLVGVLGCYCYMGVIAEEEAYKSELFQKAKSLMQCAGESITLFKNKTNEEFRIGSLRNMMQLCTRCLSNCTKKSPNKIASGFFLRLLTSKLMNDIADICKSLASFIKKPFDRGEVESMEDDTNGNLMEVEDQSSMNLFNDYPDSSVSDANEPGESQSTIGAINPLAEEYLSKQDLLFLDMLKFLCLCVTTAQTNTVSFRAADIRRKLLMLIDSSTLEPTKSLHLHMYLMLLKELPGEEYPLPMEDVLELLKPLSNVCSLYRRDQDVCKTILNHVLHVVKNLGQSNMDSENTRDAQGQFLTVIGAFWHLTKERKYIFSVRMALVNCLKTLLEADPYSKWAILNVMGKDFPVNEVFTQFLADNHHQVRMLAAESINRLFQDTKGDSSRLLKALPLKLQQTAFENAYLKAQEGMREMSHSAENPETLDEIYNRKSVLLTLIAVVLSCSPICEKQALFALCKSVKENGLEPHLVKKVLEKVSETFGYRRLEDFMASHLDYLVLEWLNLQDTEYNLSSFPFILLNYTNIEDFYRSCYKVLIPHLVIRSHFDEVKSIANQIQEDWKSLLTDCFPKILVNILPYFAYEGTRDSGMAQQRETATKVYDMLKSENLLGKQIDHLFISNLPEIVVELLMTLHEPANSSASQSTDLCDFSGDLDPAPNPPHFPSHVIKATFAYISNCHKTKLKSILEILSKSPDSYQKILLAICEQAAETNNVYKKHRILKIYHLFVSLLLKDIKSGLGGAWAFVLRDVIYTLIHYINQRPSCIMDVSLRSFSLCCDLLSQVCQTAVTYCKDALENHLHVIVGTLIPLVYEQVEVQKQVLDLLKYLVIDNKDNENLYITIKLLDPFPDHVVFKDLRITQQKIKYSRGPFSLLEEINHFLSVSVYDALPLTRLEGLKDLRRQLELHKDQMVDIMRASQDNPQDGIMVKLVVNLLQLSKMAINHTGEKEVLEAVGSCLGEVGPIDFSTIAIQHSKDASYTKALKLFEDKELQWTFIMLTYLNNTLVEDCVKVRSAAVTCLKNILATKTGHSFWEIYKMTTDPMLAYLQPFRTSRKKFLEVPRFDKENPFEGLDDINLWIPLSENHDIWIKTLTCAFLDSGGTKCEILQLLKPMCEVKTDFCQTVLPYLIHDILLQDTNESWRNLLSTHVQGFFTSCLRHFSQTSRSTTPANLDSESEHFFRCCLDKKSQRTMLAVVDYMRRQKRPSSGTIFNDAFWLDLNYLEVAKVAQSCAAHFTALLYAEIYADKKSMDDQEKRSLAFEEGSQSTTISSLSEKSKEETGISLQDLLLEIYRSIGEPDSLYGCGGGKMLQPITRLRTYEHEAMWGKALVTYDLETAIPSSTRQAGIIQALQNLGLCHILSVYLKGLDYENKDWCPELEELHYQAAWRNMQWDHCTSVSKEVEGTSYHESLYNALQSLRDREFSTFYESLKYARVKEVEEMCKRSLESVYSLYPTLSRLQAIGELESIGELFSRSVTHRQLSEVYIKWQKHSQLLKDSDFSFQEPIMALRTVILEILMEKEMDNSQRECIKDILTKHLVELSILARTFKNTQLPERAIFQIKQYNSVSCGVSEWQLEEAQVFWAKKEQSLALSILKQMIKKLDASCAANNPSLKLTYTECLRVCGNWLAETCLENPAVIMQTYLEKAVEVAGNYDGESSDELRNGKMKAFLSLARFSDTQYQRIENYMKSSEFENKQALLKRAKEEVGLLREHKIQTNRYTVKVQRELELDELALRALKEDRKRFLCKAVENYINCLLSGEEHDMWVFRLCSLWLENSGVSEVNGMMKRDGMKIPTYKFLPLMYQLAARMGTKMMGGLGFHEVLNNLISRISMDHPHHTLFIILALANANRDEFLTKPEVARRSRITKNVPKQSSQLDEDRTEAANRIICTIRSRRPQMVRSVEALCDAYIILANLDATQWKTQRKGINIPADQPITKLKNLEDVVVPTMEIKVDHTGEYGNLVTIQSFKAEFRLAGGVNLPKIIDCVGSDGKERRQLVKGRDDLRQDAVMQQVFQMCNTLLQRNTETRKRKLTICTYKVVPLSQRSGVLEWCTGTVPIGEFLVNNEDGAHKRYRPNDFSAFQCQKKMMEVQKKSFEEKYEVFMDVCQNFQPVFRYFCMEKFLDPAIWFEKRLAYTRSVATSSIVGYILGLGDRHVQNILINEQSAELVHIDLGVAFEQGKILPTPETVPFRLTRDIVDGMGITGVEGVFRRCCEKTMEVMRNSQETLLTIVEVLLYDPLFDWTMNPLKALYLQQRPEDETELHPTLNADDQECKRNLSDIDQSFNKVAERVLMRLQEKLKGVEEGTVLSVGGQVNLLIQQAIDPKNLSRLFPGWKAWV

Consider `C[C@@H]1CN(CC(=O)Nc2ccc3c(c2)Cc2cccc(-c4cc(=O)cc(N5CCOCC5)o4)c2S3)C[C@H](C)O1`, for which, in series [1], the bioavailability was found to be 37%.
As to `CN1CCN(CCC(=O)Nc2ccc3c(c2)Sc2cccc(-c4cc(=O)cc(N5CCOCC5)o4)c2S3)CC1`, the 50% inhibitory concentration (IC50) in series [2] was 10000 nM; in series [3] it was 13 nM; in [4], 9100 nM; in series [5], more than 100000 nM; in series [6], more than 100000 nM; in [7] it was more than 10000 nM.
For `O=c1cc(N2CCOCC2)cc(N2CCCCC[C@@H]2Cc2ccccc2)[nH]1`, in series [8], the IC50 came to 230 nM.
In the case of `CC(C)n1c(=O)n(C)c2cnc3cc(F)c(-c4ccc(OCCCN5CCCCC5)nc4)cc3c21` [AZD-1390], the IC50 in series [9] worked out at 7.8 nM.
As for `COc1cc2ncc3c(c2cc1-c1cn(C)nc1C)n(-c1c(F)cncc1OC)c(=O)n3C` [LARTESERTIB], in series [10], the solubility stood at 93 µg/mL (≈ 207 µM). Besides, the midpoint of inhibition in series [4], the IC50, lay at 600 nM.

As a reminder, the bioavailability is the share of a dose that reaches the circulation, judged against a reference dose that is usually intravenous. A low value points to little systemic uptake. One may read the IC50 as the concentration that inhibits the measured activity by half. Low readings indicate higher potency, high ones lower potency. As a reminder, the solubility is the concentration that dissolves in the medium under given conditions.
